Laboratory results taken from PMC8074287, “Analgesic and Anticancer Activity of Benzoxazole Clubbed 2-Pyrrolidinones as Novel Inhibitors of Monoacylglycerol Lipase” (Molecules, 2021).
Like-named read-outs stand apart in the source and are kept apart here.

Legend:
[1] = target: T1, hMAGL (Homo sapiens, UniProt Q99685); assay: Human MAGL inhibition assay (Cayman's assay kit)
T1 sequence (Q99685 1-303): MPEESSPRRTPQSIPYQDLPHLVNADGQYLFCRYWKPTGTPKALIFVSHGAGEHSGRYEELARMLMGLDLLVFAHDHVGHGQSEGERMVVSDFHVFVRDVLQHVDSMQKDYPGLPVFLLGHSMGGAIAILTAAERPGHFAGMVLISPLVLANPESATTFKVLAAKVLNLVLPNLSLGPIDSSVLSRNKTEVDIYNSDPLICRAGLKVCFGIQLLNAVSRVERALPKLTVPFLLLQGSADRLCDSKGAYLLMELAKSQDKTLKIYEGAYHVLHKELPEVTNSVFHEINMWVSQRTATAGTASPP

[2] = test system: MAGL; details: cited from earlier work
[3] = test system: FAAH; set-up: method as in PMID 15456244; details: read-out: FAAH IC50, value reported; cited from earlier work
[4] = test system: formalin-induced nociception; assay: Formalin-induced analgesic (nociception) test; type: in vivo, Male Wistar rats; details: 100 mg/kg i.p., 30 min before formalin
Excerpt: The formalin-induced analgesic test is an extensively acknowledged animal nociception model. In order to evaluate both central and peripheral effects of the compound (20), formalin-induced nociception model was selected for analgesic activity. The formalin induced behavioral response comprises two typical phases, stage I and II. Stage I persists up to five minutes after formalin injection and is characterized by acute pain with vigorous licking and biting of the injected site. Stage I consists the action formalin on afferent C-fiber nociceptors. While Stage II starts 10–30 min after formalin injection and persists till 60 min, characterized by periodic licking and biting of the injected site. Stage II imitates the action of central sensitization of the spinal dorsal horn neurons.
Figure 5 Formalin-induced analgesic test; a dose of the test compound 20 (5, 10, 30, and 50 mg/kg, p.o, suspended in 0.5% CMC) was administered 4 h before formalin injection (50 µL, 2.5%). Reference drug, gabapentin (100 mg/kg, i.p, dissolved in 0.9% normal saline) was injected 30 min before formalin injection. Total paw licking and biting duration, Stage I (white bar, 0–5 min) and stage II (black bar, 10–30 min) was recorded as a measure of pain behavior. Data is represented as mean ± SEM from a group of 10 animals. * p < 0.05, ** p < 0.01, p > 0.05 (NS, nonsignificant) vs. control (vehicle). GBP: Gabapentin; D5, D10, D30, andD50 are the dose concentrations of test compound 20.
Male Wistar rats (180–200 g) were obtained with the permission of IAEC (proposal number 1048) from Jamia Hamdard, New Delhi, India. The results of test compound 20 and reference drug, Gabapentin (GBP), were statistically compared with the control group.

[5] = target: T2, hFAAH (Homo sapiens, UniProt O00519); assay: Human FAAH inhibition assay (Cayman's assay kit); details: IC50, mean ± SEM (n = 3)
T2 sequence (O00519 1-579): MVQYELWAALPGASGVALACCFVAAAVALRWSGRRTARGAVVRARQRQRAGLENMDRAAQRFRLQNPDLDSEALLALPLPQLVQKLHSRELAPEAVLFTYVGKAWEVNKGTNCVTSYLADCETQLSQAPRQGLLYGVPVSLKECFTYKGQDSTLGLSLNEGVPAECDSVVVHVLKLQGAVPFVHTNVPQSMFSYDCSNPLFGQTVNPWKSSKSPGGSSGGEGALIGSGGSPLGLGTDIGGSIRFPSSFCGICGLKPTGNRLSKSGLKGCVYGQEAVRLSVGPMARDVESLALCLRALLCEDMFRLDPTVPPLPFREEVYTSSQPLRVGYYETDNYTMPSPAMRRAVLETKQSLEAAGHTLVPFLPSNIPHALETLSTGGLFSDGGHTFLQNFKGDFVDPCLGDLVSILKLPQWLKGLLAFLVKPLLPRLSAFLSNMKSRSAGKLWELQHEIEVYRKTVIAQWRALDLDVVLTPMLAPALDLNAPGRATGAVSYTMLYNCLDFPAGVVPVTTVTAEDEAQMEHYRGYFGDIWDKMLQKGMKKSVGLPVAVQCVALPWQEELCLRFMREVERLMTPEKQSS

[6] = earlier work of the authors' group

SMILES	IC50 [1] [nM]	melting point [°C]	IC50 [2] [nM]	other results
Cc1ccc(N2CC(c3nc4ccccc4o3)CC2=O)cc1 (centres unmarked) [Compound 14, 4-(Benzo[d]oxazol-2-yl)-1-(p-tolyl)pyrrolidin-2-one]	72000 ± 2100	164 to 166	–	–
O=C(Cn1nnc2ccccc21)Nc1ccc(-c2nc3ccccc3s2)cc1 [ZINC24092691 analogue]	–	–	–	IC50 [2, 6]: 6.5 nM
O=C1CC(c2nc3ccccc3o2)CN1Cc1ccccc1 (centres unmarked) [Compound 11, 4-(Benzo[d]oxazol-2-yl)-1-benzylpyrrolidin-2-one]	> 100000	160 to 162	–	–
O=C(N1CCN(C(c2ccc(F)cc2)c2ccc(F)cc2)CC1)n1cncn1 [SAR629]	–	–	1.1	–
CCCCNC(=O)Oc1ccc(C2=NCCS2)cc1 [SPB01403]	–	–	31000	–
NC(=O)c1cccc(-c2cccc(OC(=O)NC3CCCCC3)c2)c1 [URB597]	–	–	–	IC50 [3]: 4.6 nM
O=C(Nc1cccc(-c2ccccc2)c1)OC1CCCCC1 [URB602]	–	–	28000	–
COc1ccc(N2CC(c3nc4ccccc4[nH]3)CC2=O)cc1 (centres unmarked) [compound 25]	–	–	–	IC50 [2, 6]: 9.4 nM
O=C(OC(C(F)(F)F)C(F)(F)F)N1CCC(C(O)(c2ccc3c(c2)OCO3)c2ccc3c(c2)OCO3)CC1 [KML29]	–	–	3.6	selectivity for MAGL over FAAH [2]: more than 10,000 fold
COc1nn(-c2ccc(NC(=O)OCc3ccccc3)c(C)c2)c(=O)o1 [CAY10499, reference compound]	–	–	144	IC50 ([1]; read-out: hMAGL, IC50, mean ± SEM (n = 3)): 415 ± 3.2 nM
Cc1ccccc1N1CC(c2nc3ccccc3o2)CC1=O (centres unmarked) [Compound 13, 4-(Benzo[d]oxazol-2-yl)-1-(o-tolyl)pyrrolidin-2-one]	85000 ± 1500	162 to 164	–	–
O=C(N1CCC(C(c2ccc3c(c2)OCO3)c2ccc3c(c2)OCO3)CC1)n1cncn1 [JJKK-048, {4-[bis-(benzo[d][1,3]dioxol-5-yl)methyl]-piperidin-1-yl}(1H-1,2,4-triazol-1-yl)methanone]	–	–	0.363	selectivity for MAGL over FAAH [2]: more than 10,000 fold
O=C(N1CCN(C(c2ccccc2)c2ccccc2)CC1)n1nnc2ccccc21 [ML30]	–	–	0.54	–
NCC1(CC(=O)O)CCCCC1 [GBP, Gabapentin, reference compound]	–	–	–	paw licking and biting, Stage II ([4]; vs control): significant reduction of paw licking and biting; analgesic effect, Stage I (acute nociception) ([4]; vs control (0.5% CMC)): little analgesic effects
O=C1CC(c2nc3ccccc3o2)CN1c1ccc(O)cc1 (centres unmarked) [Compound 17, 4-(Benzo[d]oxazol-2-yl)-1-(4-hydroxyphenyl)pyrrolidin-2-one]	62000 ± 2700	242 to 245	–	–
O=C1CC(c2nc3ccccc3o2)CN1c1ccc(Cl)cc1 (centres unmarked) [Compound 15, 4-(Benzo[d]oxazol-2-yl)-1-(4-chlorophenyl)pyrrolidin-2-one]	65 ± 3.2	174 to 176	–	IC50 [5]: 28000 ± 1800 nM
COc1ccc(N2CC(c3nc4ccccc4o3)CC2=O)cc1 (centres unmarked) [Compound 18, 4-(Benzo[d]oxazol-2-yl)-1-(4-methoxyphenyl)pyrrolidin-2-one]	42 ± 1.5	177 to 179	–	IC50 [5]: 37000 ± 2200 nM
O=C(O[C@H](CO)C(F)(F)F)N1C[C@@H]2C(c3ccn(-c4ccc(F)cc4)n3)[C@@H]2C1 (some centres unmarked) [PF-06795071]	–	–	3	–
O=C1CC(c2nc3ccccc3o2)CN1c1ccc(F)c(Cl)c1 (centres unmarked) [Compound 16, 4-(Benzo[d]oxazol-2-yl)-1-(3-chloro-4-fluorophenyl)pyrrolidin-2-one]	34 ± 1.7	187 to 189	–	IC50 [5]: 25000 ± 2300 nM
O=C1CC(c2nc3ccccc3o2)CN1c1ccccc1 (centres unmarked) [Compound 12, 4-(Benzo[d]oxazol-2-yl)-1-phenylpyrrolidin-2-one]	> 100000	148 to 150	–	–
O=C(Cn1nnc2ccccc21)Nc1ccc(-c2nc3ccccc3s2)cc1 [ZINC24092691]	–	–	–	IC50 [2, 6]: 10 nM
Cc1ncccc1-c1cc(F)cc(N2C[C@H](N3CCN(c4ncccn4)CC3)CC2=O)c1 [R(3t)]	–	–	3.6	–
